Data from PMC8784342, “Investigation of sugar binding kinetics of the E. coli sugar/H^+ symporter XylE using solid-supported membrane-based electrophysiology” (The Journal of Biological Chemistry, 2021).
Values joined by “and” are separate entries in the source; they are usually repeats but may differ in a detail not shown here. Identical values can stand only once. Marks after values point to notes of the source that are not given here.

What was measured:
D27N XylE [1] = biological target: T1, D27N XylE (Escherichia coli, UniProt P0AGF4, D27N); test: SSM-based electrophysiology, transport-deficient mutant D27N XylE (PSS currents, electrogenic binding); type: biochemical
T1 construct: made in house; host or cells: E. coli BL21 DE3
T1 sequence (P0AGF4 whole entry D27N): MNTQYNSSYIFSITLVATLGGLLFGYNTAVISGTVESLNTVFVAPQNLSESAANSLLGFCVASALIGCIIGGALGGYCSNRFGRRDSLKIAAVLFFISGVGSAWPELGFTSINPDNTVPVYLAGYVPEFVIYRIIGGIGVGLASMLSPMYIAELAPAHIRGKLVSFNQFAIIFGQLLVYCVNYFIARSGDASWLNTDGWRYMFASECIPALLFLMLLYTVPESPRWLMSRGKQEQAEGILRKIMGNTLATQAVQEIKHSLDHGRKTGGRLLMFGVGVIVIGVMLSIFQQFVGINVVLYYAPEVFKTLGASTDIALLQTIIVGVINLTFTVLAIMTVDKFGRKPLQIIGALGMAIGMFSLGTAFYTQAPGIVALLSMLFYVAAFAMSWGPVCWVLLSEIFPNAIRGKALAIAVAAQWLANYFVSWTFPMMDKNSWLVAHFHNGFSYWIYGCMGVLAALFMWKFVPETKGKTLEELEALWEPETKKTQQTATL
Method: (§1) Reconstitution of purified proteins (2–20 mg/ml) was carried out with E. coli phospholipids (Avanti Polar Lipids, E. coli polar lipid extract). Preformed liposomes (0.2–2 ml, 10 mg/ml) were dissolved in 1% (w/v) n-octyl-β-D-glucoside, and the protein suspension was mixed on ice to a concentration of 0.2 mg protein/mg lipid (LPR 5).
(§2) Wt XylE, wt FucP, and the mutant proteins were reconstituted using overnight incubation in 400 mg/ml BioBeads (SM-2 Adsorbent Media, Bio-Rad) at 4 °C. After reconstitution, the samples were diluted to 2.5 mg/ml lipid concentration, frozen in liquid nitrogen, and stored at −80 °C. For wt LacY and mutant proteins, this procedure was not successful. We, therefore, applied the previously established n-octyl-β-D-glucoside dilution method (1:100) ([69]).
(§3) SSM measurements were performed as described ([20], [23]). After thawing the sample and sonication in a water bath, 30 μl of proteoliposomes (2.5 mg/ml lipid at LPR 5) was allowed to adsorb for 1 to 2 h to an octadecanethiol/phosphatidylcholine hybrid bilayer on a gold surface (the sensor).
(§4) For measurements, a single solution exchange configuration ([23]) was employed that consisted in three phases of 0.5 s duration each: Flow of nonactivating solution (NA), activating solution (A), and nonactivating solution (NA). Only the activating solution contained the sugar. When pH dependence is determined, pH of NA and A solutions during one experiment are kept constant. Between experiments using different pH values, the sensor was incubated at the new pH for 3 min to equilibrate the intraliposomal pH.
(§5) Instruments with different time resolution were used as required. […] Currents were recorded throughout the entire time and amplified with a current amplifier set to a gain of […] and a rise time of 10 ms (low time-resolution set up) or 3 ms (high time-resolution set up).
(§6) All NA solutions were buffered in 100 mM KPi at a given pH value. NA solutions used with LacY contained 1 mM DTT in addition. A solutions were made from NA solutions by adding the respective sugar at a given concentration to induce the symport reaction. Sugar concentration jumps initiated sugar-proton symport, and charge transfer was measured by capacitive coupling. Therefore, only transient currents were recorded.
(§7) Each dataset represented with error bars was generated by performing the same experiment on multiple sensors (n ≥ 3). Error bars represent standard deviations of the average value. When peak currents are averaged across sensors, datasets are normalized before averaging. When the protein catalyzes transport and PSS currents are negligible, the peak current of the transient represents a good approximation of the current generated by the steady-state symport activity of the transporter. In most cases, peak currents have been used to derive kinetic and thermodynamic parameters according to the equations given in Figure 2 (KM, Imax ∼ Vmax, Hill coefficient n), Figure 4 (KD and rate constants for sugar binding kon and release koff), and Figure 6 (pKa for proton binding and pKb for proton release). Reconstruction of transporter currents for analysis of biphasic currents has been performed as described previously ([70]). This is required when transport and PSS currents are observed at the same time.

Q175I/L297F XylE = biological target: T2, Q175I/L297F XylE (Escherichia coli, UniProt P0AGF4, L297F/Q175I); test: biochemical
T2 construct: made in house; host or cells: E. coli BL21 DE3
T2 sequence (P0AGF4 whole entry Q175I/L297F): as the sequence (P0AGF4 whole entry D27N) above, with N27D, Q175I, L297F counted along it
Method: as §1
as §2, with “For wt LacY and mutant proteins, this procedure was not successful.” left out
as §3, §4, §5, §6, §7

D27N XylE [2] = biological target: T1, D27N XylE; conditions: relative to D-xylose in wt XylE (100%); cited from earlier work
D27N XylE [3] = biological target: T1, D27N XylE; conditions: cited from earlier work
XylE [4] = conditions: radioactively labeled sugars; read-out: KM, literature; cited from earlier work
XylE [5] = biological target: XylE; parameters: method as in PMID 23075985; conditions: read-out: KD, isothermal titration calorimetry; cited from earlier work
wt XylE [6] = biological target: T3, wt XylE (Escherichia coli, UniProt P0AGF4); conditions: cited from earlier work
T3 sequence (P0AGF4 whole entry): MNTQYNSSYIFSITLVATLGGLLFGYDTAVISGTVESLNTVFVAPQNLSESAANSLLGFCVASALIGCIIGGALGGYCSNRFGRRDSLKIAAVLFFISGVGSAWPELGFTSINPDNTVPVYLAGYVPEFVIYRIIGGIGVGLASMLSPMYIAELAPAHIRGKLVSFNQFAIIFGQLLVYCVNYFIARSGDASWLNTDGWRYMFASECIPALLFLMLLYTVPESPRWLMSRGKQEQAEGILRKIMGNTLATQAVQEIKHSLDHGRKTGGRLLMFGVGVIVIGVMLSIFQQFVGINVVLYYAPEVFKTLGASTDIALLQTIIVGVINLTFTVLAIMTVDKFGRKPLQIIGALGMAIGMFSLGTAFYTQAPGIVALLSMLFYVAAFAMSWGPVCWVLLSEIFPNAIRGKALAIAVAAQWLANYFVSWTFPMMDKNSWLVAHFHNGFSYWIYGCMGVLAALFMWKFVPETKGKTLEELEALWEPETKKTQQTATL

wt XylE [7] = biological target: T3, wt XylE; test: biochemical; parameters: made in house; host or cells: E. coli BL21 DE3
Method: as §1, §2, §3, §4, §5, §6, §7

wt XylE [8] = biological target: T3, wt XylE; parameters: made in house; host or cells: E. coli BL21 DE3; conditions: relative to D-xylose in wt XylE (100%); cited from earlier work

OC1OC[C@@H](O)[C@H](O)[C@H]1O (stereo partly drawn) [D-xylose]
Kd (D27N XylE [1]; KD (mM) mut, pH 7.6, hyperbolic fit of peak currents, in Table 3 headed EC50): 1 ± 0.1 mM
Kd (D27N XylE [1]; KD from fit of concentration-dependent kobs, pH 7.6): 5.5 ± 2.1 mM
Imax (nA) slow component (D27N XylE [1]; pH 7.6): <0.05 nA
Q (pC) Mut, transferred charge (D27N XylE [1]; pH 7.6, 30 mM substrate): 6.8 ± 1.5 (pH 7.6) pC
IPeak (pA) fast component (D27N XylE [1]; pH 7.6, saturating substrate): 500 pA and 500 ± 100 pA
kobs (s^−1) mut (D27N XylE [1]; saturating substrate (30 mM), kobs = 1/τ, monoexponential fit, limited by time resolution): 300 ± 30 s⁻¹
EC50 (Q175I/L297F XylE; EC50 (mM) (KM for transport, slow component), pH 7.6): ~1.5 mM
Imax slow component normalized to D-xylose transport in wt XylE (100%) (Q175I/L297F XylE; pH 7.6): 22%
Imax (nA) slow component (Q175I/L297F XylE; pH 7.6, reconstructed transporter current): 0.4 ± 0.1 nA
IPeak (pA) fast component (Q175I/L297F XylE; pH 7.6, saturating substrate): 520 ± 90 pA
pKa (Q175I/L297F XylE; reconstructed transporter currents, acidic range): 4.8 ± 0.1
Radioactive counterflow activity (D27N XylE [2]): 90%
activity in uptake assay (D27N XylE [3]): < 1%
Km (XylE [4]): 100 to 500 µM
Kd (XylE [5]): 400 µM
Imax (wt XylE [6]; pH 7.6, main substrate): 1.8 ± 0.5 nA
pKa (wt XylE [6]; pH-dependent peak currents, acidic range): 4.6 ± 0.2
pKb1 (wt XylE [6]; pH-dependent peak currents, alkaline range, double titration): ~7.5
Km (wt XylE [6]; read-out: KM (mM) Michaelis–Menten equation, pH 7.6, main substrate, in Table 3 headed EC50): ~1.5 mM
PSS current higher than that for D-glucose (wt XylE [7]; independent of pH): 165 pA
Q (pC) wt, PSS transferred charge (wt XylE [7]; pH 3.2, 30 mM substrate): 4.0 ± 1.4 (pH 3.2) pC
Imax in percent of Imax of the main substrate (D-xylose) (wt XylE [7]; pH 7.6): 100%
IPeak (pA) fast component (wt XylE [7]; pH 7.6, saturating substrate, transport current given as upper limit): <1800 pA
Radioactive counterflow activity (wt XylE [8]): 100% ^a
